Reference: the NIST ThermoML archive (doi:10.1021/acs.jced.6b00718)
± gives the expanded uncertainty stated by the source.

Test: xn = mol fraction of the nth substance listed
Conditions: 101 kPa, Liquid; for viscosity: Falling or rolling sphere viscometry; for mass density: Vibrating tube method; for electrical conductivity: Alternating current cell with electrodes, x2 = 0.1402

## CCCC#N [butanenitrile] + CCCC[N+]1(C)CCCC1.O=S(=O)([N-]S(=O)(=O)C(F)(F)F)C(F)(F)F
293.15 K, x2 = 0
  viscosity: 0.88 ± 0.05 mPa·s
  mass density: 791.1 ± 1.6 kg/m3
293.15 K, x2 = 0.1009
  viscosity: 1.51 ± 0.09 mPa·s
293.15 K, x2 = 0.1987
  viscosity: 2.73 ± 0.18 mPa·s
293.15 K, x2 = 0.3002
  viscosity: 6.43 ± 0.4 mPa·s
293.15 K, x2 = 0.4
  viscosity: 8.77 ± 0.54 mPa·s
293.15 K, x2 = 0.5012
  viscosity: 14.45 ± 0.89 mPa·s
293.15 K, x2 = 0.6
  viscosity: 22.39 ± 1.4 mPa·s
  mass density: 1304.7 ± 2.8 kg/m3
293.15 K, x2 = 0.7
  viscosity: 33.65 ± 2.1 mPa·s
  mass density: 1335.1 ± 2.8 kg/m3
293.15 K, x2 = 0.8
  viscosity: 49.94 ± 3.1 mPa·s
  mass density: 1360.6 ± 2.8 kg/m3
293.15 K, x2 = 0.9
  viscosity: 73.01 ± 4.5 mPa·s
293.15 K, x2 = 0.1003
  mass density: 965 ± 4 kg/m3
293.15 K, x2 = 0.1994
  mass density: 1078.7 ± 3.2 kg/m3
293.15 K, x2 = 0.3001
  mass density: 1160.1 ± 2.9 kg/m3
293.15 K, x2 = 0.4006
  mass density: 1220.4 ± 2.8 kg/m3
293.15 K, x2 = 0.4999
  mass density: 1267.7 ± 2.8 kg/m3
293.15 K, x2 = 0.9007
  mass density: 1382 ± 2.9 kg/m3
293.2 K
  electrical conductivity: 1.69 ± 0.035 S/m
298.15 K, x2 = 0
  viscosity: 0.86 ± 0.05 mPa·s
  mass density: 786.4 ± 1.6 kg/m3
298.15 K, x2 = 0.1009
  viscosity: 1.45 ± 0.09 mPa·s
298.15 K, x2 = 0.1987
  viscosity: 2.53 ± 0.16 mPa·s
298.15 K, x2 = 0.3002
  viscosity: 5.72 ± 0.35 mPa·s
298.15 K, x2 = 0.4
  viscosity: 7.81 ± 0.48 mPa·s
298.15 K, x2 = 0.5012
  viscosity: 12.44 ± 0.77 mPa·s
298.15 K, x2 = 0.6
  viscosity: 18.94 ± 1.2 mPa·s
  mass density: 1300 ± 2.8 kg/m3
298.15 K, x2 = 0.7
  viscosity: 27.95 ± 1.7 mPa·s
  mass density: 1330.5 ± 2.8 kg/m3
298.15 K, x2 = 0.8
  viscosity: 40.71 ± 2.5 mPa·s
  mass density: 1356 ± 2.8 kg/m3
298.15 K, x2 = 0.9
  viscosity: 58.33 ± 3.6 mPa·s
298.15 K, x2 = 0.1003
  mass density: 960.4 ± 4 kg/m3
298.15 K, x2 = 0.1994
  mass density: 1074.3 ± 3.2 kg/m3
298.15 K, x2 = 0.3001
  mass density: 1155.4 ± 2.9 kg/m3
298.15 K, x2 = 0.4006
  mass density: 1216.1 ± 2.8 kg/m3
298.15 K, x2 = 0.4999
  mass density: 1263.2 ± 2.8 kg/m3
298.15 K, x2 = 0.9007
  mass density: 1377.5 ± 2.8 kg/m3
299.5 K
  electrical conductivity: 1.85 ± 0.038 S/m
302.7 K
  electrical conductivity: 1.97 ± 0.042 S/m
303.15 K, x2 = 0
  viscosity: 0.84 ± 0.05 mPa·s
  mass density: 781.8 ± 1.6 kg/m3
303.15 K, x2 = 0.1009
  viscosity: 1.37 ± 0.09 mPa·s
303.15 K, x2 = 0.1987
  viscosity: 2.37 ± 0.15 mPa·s
303.15 K, x2 = 0.3002
  viscosity: 5.13 ± 0.32 mPa·s
303.15 K, x2 = 0.4
  viscosity: 7.14 ± 0.44 mPa·s
303.15 K, x2 = 0.5012
  viscosity: 10.81 ± 0.66 mPa·s
303.15 K, x2 = 0.6
  viscosity: 16.2 ± 1 mPa·s
  mass density: 1295.5 ± 2.7 kg/m3
303.15 K, x2 = 0.7
  viscosity: 23.51 ± 1.4 mPa·s
  mass density: 1326 ± 2.8 kg/m3
303.15 K, x2 = 0.8
  viscosity: 33.68 ± 2.1 mPa·s
  mass density: 1351.5 ± 2.8 kg/m3
303.15 K, x2 = 0.9
  viscosity: 47.41 ± 2.9 mPa·s
303.15 K, x2 = 0.1003
  mass density: 955.7 ± 4 kg/m3
303.15 K, x2 = 0.1994
  mass density: 1069.6 ± 3.2 kg/m3
303.15 K, x2 = 0.3001
  mass density: 1150.8 ± 2.9 kg/m3
303.15 K, x2 = 0.4006
  mass density: 1211.4 ± 2.8 kg/m3
303.15 K, x2 = 0.4999
  mass density: 1258.6 ± 2.7 kg/m3
303.15 K, x2 = 0.9007
  mass density: 1373 ± 2.8 kg/m3
310 K
  electrical conductivity: 2.19 ± 0.046 S/m
313.15 K, x2 = 0
  viscosity: 0.81 ± 0.05 mPa·s
  mass density: 772.4 ± 1.6 kg/m3
313.15 K, x2 = 0.1009
  viscosity: 1.25 ± 0.08 mPa·s
313.15 K, x2 = 0.1987
  viscosity: 2.07 ± 0.13 mPa·s
313.15 K, x2 = 0.3002
  viscosity: 4.22 ± 0.26 mPa·s
313.15 K, x2 = 0.4
  viscosity: 5.68 ± 0.35 mPa·s
313.15 K, x2 = 0.5012
  viscosity: 8.38 ± 0.51 mPa·s
313.15 K, x2 = 0.6
  viscosity: 12.18 ± 0.75 mPa·s
  mass density: 1286.2 ± 2.7 kg/m3
313.15 K, x2 = 0.7
  viscosity: 17.18 ± 1.1 mPa·s
  mass density: 1316.8 ± 2.8 kg/m3
313.15 K, x2 = 0.8
  viscosity: 23.91 ± 1.5 mPa·s
  mass density: 1342.3 ± 2.8 kg/m3
313.15 K, x2 = 0.9
  viscosity: 32.67 ± 2 mPa·s
313.15 K, x2 = 0.1003
  mass density: 946.2 ± 4 kg/m3
313.15 K, x2 = 0.1994
  mass density: 1060.1 ± 3.2 kg/m3
313.15 K, x2 = 0.3001
  mass density: 1141.4 ± 2.9 kg/m3
313.15 K, x2 = 0.4006
  mass density: 1202.1 ± 2.8 kg/m3
313.15 K, x2 = 0.4999
  mass density: 1249.3 ± 2.7 kg/m3
313.15 K, x2 = 0.9007
  mass density: 1363.8 ± 2.8 kg/m3
313.7 K
  electrical conductivity: 2.3 ± 0.047 S/m
323.15 K, x2 = 0
  viscosity: 0.78 ± 0.05 mPa·s
  mass density: 763 ± 1.5 kg/m3
323.15 K, x2 = 0.1009
  viscosity: 1.17 ± 0.07 mPa·s
323.15 K, x2 = 0.1987
  viscosity: 1.84 ± 0.12 mPa·s
323.15 K, x2 = 0.3002
  viscosity: 3.52 ± 0.22 mPa·s
323.15 K, x2 = 0.4
  viscosity: 4.62 ± 0.28 mPa·s
323.15 K, x2 = 0.5012
  viscosity: 6.67 ± 0.41 mPa·s
323.15 K, x2 = 0.6
  viscosity: 9.47 ± 0.58 mPa·s
  mass density: 1277.2 ± 2.7 kg/m3
323.15 K, x2 = 0.7
  viscosity: 13.04 ± 0.8 mPa·s
  mass density: 1307.9 ± 2.7 kg/m3
323.15 K, x2 = 0.8
  viscosity: 17.69 ± 1.1 mPa·s
  mass density: 1333.3 ± 2.8 kg/m3
323.15 K, x2 = 0.9
  viscosity: 23.59 ± 1.4 mPa·s
323.15 K, x2 = 0.1003
  mass density: 936.8 ± 3.9 kg/m3
323.15 K, x2 = 0.1994
  mass density: 1050.7 ± 3.2 kg/m3
323.15 K, x2 = 0.3001
  mass density: 1132.1 ± 2.8 kg/m3
323.15 K, x2 = 0.4006
  mass density: 1192.9 ± 2.7 kg/m3
323.15 K, x2 = 0.4999
  mass density: 1240.2 ± 2.7 kg/m3
323.15 K, x2 = 0.9007
  mass density: 1354.9 ± 2.8 kg/m3
324.6 K
  electrical conductivity: 2.62 ± 0.053 S/m
333.15 K, x2 = 0
  viscosity: 0.75 ± 0.05 mPa·s
  mass density: 753.5 ± 1.5 kg/m3
333.15 K, x2 = 0.1009
  viscosity: 1.12 ± 0.07 mPa·s
333.15 K, x2 = 0.1987
  viscosity: 1.65 ± 0.1 mPa·s
333.15 K, x2 = 0.3002
  viscosity: 3.03 ± 0.19 mPa·s
333.15 K, x2 = 0.4
  viscosity: 3.85 ± 0.24 mPa·s
333.15 K, x2 = 0.5012
  viscosity: 5.43 ± 0.33 mPa·s
333.15 K, x2 = 0.6
  viscosity: 7.55 ± 0.46 mPa·s
  mass density: 1268.3 ± 2.7 kg/m3
333.15 K, x2 = 0.7
  viscosity: 10.2 ± 0.62 mPa·s
  mass density: 1298.9 ± 2.7 kg/m3
333.15 K, x2 = 0.8
  viscosity: 13.55 ± 0.83 mPa·s
  mass density: 1324.1 ± 2.7 kg/m3
333.15 K, x2 = 0.9
  viscosity: 17.71 ± 1.1 mPa·s
333.15 K, x2 = 0.1003
  mass density: 927.3 ± 3.9 kg/m3
333.15 K, x2 = 0.1994
  mass density: 1041.1 ± 3.1 kg/m3
333.15 K, x2 = 0.3001
  mass density: 1122.9 ± 2.8 kg/m3
333.15 K, x2 = 0.4006
  mass density: 1183.7 ± 2.7 kg/m3
333.15 K, x2 = 0.4999
  mass density: 1231 ± 2.7 kg/m3
333.15 K, x2 = 0.9007
  mass density: 1345.7 ± 2.8 kg/m3
334 K
  electrical conductivity: 2.9 ± 0.059 S/m
